Measured values reported in publication PMC9569954, “The Antidepressant-like Activity, Effects on Recognition Memory Deficits, Bioavailability, and Safety after Chronic Administration of New Dual-Acting Small Compounds Targeting Neuropsychiatric Symptoms in Dementia” (International Journal of Molecular Sciences, 2022).

Key:
rats [1] = experiment: Forced swim test (FST); format: in vivo, male Wistar rats; conditions: rat; for effect on immobility in FST / Immobility time: acute 1 mg/kg i.p.; for Immobility time: 60 min before test, 5 min session, vehicle 255.9 ± 8.6
Experimental: The rats were injected for 21 consecutive days at a dose of 1 mg/kg, similar to the dose used in acute treatment, as per data presented in Supplementary Materials (Table S1). The FST was conducted according to the method of Porsolt. On the first day of the experiment, the animals were gently placed individually for 15 min in Plexiglas cylinders (40 cm high, 18 cm in diameter) containing 15 cm of water maintained at 23–25 °C. On removal from water, the rats were placed for 30 min in a Plexiglas box under a 60 W bulb to dry. On the following day (24 h later), the rats were replaced in the cylinder and the total duration of immobility was recorded during the whole 5 min test period. Immobility was assigned when no additional activity was observed other than that necessary to keep the rat’s head above the water. Fresh water was used for each animal.
FST after acute administration of the investigated compounds
Rats were injected 60 min before the test at a dose of 1 mg/kg. FST was carried out according to the method of Porsolt, and the same procedure was used for chronic treatment.
Table S1. Effect of acute treatment of PQA-AZ4, PQA-AZ6, and PQ-10 on the immobility time in the […]
Compound (mg/kg) Immobility time (s)
Compounds were injected i.p. 60 min before the test. Values represent the means ± SEM of immobility in the FST during a 5 min test session. The data were analyzed using one -way ANOVA, followed by Bonferroni‘s post hoc test; NS = nonsignificant; N=7-8.

rats [2] = experiment: 18-hour spontaneous activity monitoring; format: in vivo, male Wistar rats; conditions: rat, 1 mg/kg/day i.p.
Experimental: Spontaneous activity was measured on the 20th day of the treatment with a special, innovative, radio-frequency identification system (RFID-system), TraffiCage (TSE-Systems, Bad Homburg, Germany). The test was conducted according to the method described previously. The animals had RFID transmitters implanted subcutaneously, which tracked the time they spent in different areas of the cage.

Body weight measurement = format: in vivo, rats; conditions: rat, 20-day administration, 1 mg/kg/day i.p.
Experimental: Body weight was measured every second day, immediately before the administration of drugs.

[3] = Serum glucose, triglyceride and cholesterol concentrations; format: in vivo, rats; conditions: rat, 1 mg/kg/day i.p., 21 days
Experimental: (§1) The blood samples were collected immediately after decapitation and then centrifuged at 600× g […], 4 °C, to separate the plasma. The blood was used to determine metabolic parameters such as glucose, cholesterol, and triglyceride levels, together with liver enzymatic activity.
Standard enzymatic spectrophotometric tests (Biomaxima S.A., Lublin, Poland) were used to determine glucose, cholesterol, and triglyceride levels in the serum. In the presence of an appropriate enzyme, the substrate was converted to a colored compound. Absorbance was measured at a wavelength of 500 nm.

[4] = Liver enzymatic activity in serum (AlaT, AspaT, γGTP, ALP); format: in vivo, rats; conditions: rat, 1 mg/kg/day i.p.; for activity of AlaT, AspaT, γGTP, ALP in serum: three-week administration
Experimental: as §1
To determine alanine aminotransferase (AlaT), […] (AspaT), alkaline phosphatase (ALP), or gamma-glutamyl transpeptidase (γGTP) activities in the serum, a standard enzymatic spectrophotometric test (Biomaxima S.A., Lublin, Poland) was used. Absorbance was measured at a wavelength of 340 nm (AlaT, AspaT) or 405 nm (ALP, γGTP).

[5] = Ferric-reducing antioxidant power (FRAP) of serum; format: in vivo, rats; conditions: rat, 1 mg/kg/day i.p., 21 days
Experimental: The assay was performed according to Benzie and Strain [46] with some modifications. The FRAP working solution was prepared before the start of the analysis, namely, 0.3 mol acetate buffer (pH 3.6), 0.01 mol TPTZ (2,4,6-tripyridyl-s-triazine; Sigma-Aldrich) in 0.04 mol HCl (POCh, Gliwice, Poland), and 0.02 M FeCl3×6H2O in water (iron (III) chloride hexahydrate; Chempur, Piekary Śląskie, Poland) were mixed in a volumetric ratio of 10:1:1 and protected from light.
Next, 20 µL of the plasma sample tested, brain homogenate, or FeSO4×7H2O solution was mixed with 180 µL of the FRAP working solution. The mixtures obtained were incubated at 37 °C for 30 min and their absorbance was measured at 593 nm. FeSO4×7H2O (100–1000 µM/L) was used for a calibration curve. Deionized water with FRAP solution was used as a blank.

[6] = chronic 1 mg/kg/day i.p., 21 days

## COc1cccc(N2CCN(CC3CCN(c4ncnc5cc(OC)c(OC)cc45)C3)CC2)c1 (stereo not drawn) [PQA-AZ4, 6,7-Dimethoxy-4-(3-((4-(3-methoxyphenyl)piperazin-1-yl)methyl)pyrrolidin-1-yl)quinazoline]
Rats [1]
  effect on immobility in FST: did not change the immobility
  Immobility time: 244.8 ± 8.9 s
Rats [1]; [6]
  antidepressant-like activity in FST: inactive
Rats [2]; five and six hours after 20-day administration
  spontaneous activity vs vehicle: increased
Body weight measurement
  weight gain vs vehicle: No significant effect
[3]
  serum glucose concentration vs vehicle: did not significantly change
  serum triglycerides concentration vs vehicle: did not significantly change
  total cholesterol concentration vs vehicle: slight but statistically significant (p < 0.05) increase
[4]
  activity of AlaT, AspaT, γGTP, ALP in serum: no significant changes
[5]
  total antioxidant activity of serum (Fe2+ formed, FRAP) vs control: comparable

## COc1cc2ncnc(N3CCC(CN4CCN(c5ccc(Cl)cc5)CC4)C3)c2cc1OC (stereo not drawn) [PQA-AZ6, 4-(3-((4-(4-Chlorophenyl)piperazin-1-yl)methyl)pyrrolidin-1-yl)-6,7-dimethoxyquinazoline]
Rats [1]
  effect on immobility in FST: did not change the immobility
  Immobility time: 255.4 ± 7.0 s
Rats [1]; [6]
  antidepressant-like activity in FST: showed antidepressant-like properties
  decrease of immobility vs. control group in FST: about 11%
Rats [2]; eighteen hours after 20-day administration
  spontaneous activity vs vehicle: decreased
Body weight measurement
  weight gain vs vehicle: No significant effect
[3]
  serum glucose concentration vs vehicle: did not significantly change
  serum triglycerides concentration vs vehicle: did not significantly change
[4]; 21 days
  γGTP activity in serum vs control: significantly lower
[4]
  activity of AlaT, AspaT, γGTP, ALP in serum: no significant changes
[5]
  total antioxidant activity of serum (Fe2+ formed, FRAP) vs control: comparable
